Reference: PubChem BioAssay AID248 (DTP/NCI, 2004)
Inconclusive results and toxic doses are left out.

Tested on: L1210 leukemia ip in BDF1 mice, survival T/C
Assay: NCI In Vivo Anticancer Drug Screen. Data for tumor model L1210 Leukemia (intraperitoneal) in B6D2F1 (BDF1) mice
Conditions: endpoint: mean survival time, higher = longer survival
Procedure, shortened: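 In this screen, tumor-bearing mice given compound are compared to those given vehicle, and their survival values are reported as a treated-to-control quotient.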

[1] = dose: 100.0 mg/kg/injection, schedule: Q04DX003 (ip), vehicle: saline
[2] = dose: 100.0 mg/kg/injection, schedule: Q01DX001 (ip), vehicle: saline
[3] = dose: 200.0 mg/kg/injection, schedule: Q01DX001 (ip), vehicle: saline
[4] = dose: 400.0 mg/kg/injection, schedule: Q01DX001 (ip), vehicle: saline
[5] = dose: 100.0 mg/kg/injection, schedule: Q04DX002 (ip), vehicle: Klucel (hydroxypropylcellulose) (HPC)
[6] = dose: 200.0 mg/kg/injection, schedule: Q04DX002 (ip), vehicle: Klucel (hydroxypropylcellulose) (HPC)
[7] = dose: 400.0 mg/kg/injection, schedule: Q04DX002 (ip), vehicle: Klucel (hydroxypropylcellulose) (HPC)
[8] = dose: 100.0 mg/kg/injection, schedule: Q01DX001 (ip), vehicle: carboxymethylcellulose (CMC)
[9] = dose: 50.0 mg/kg/injection, schedule: Q01DX001 (ip), vehicle: saline

Structure (SMILES): Cc1nc(N)sc1C
- T/C (dose: 25.0 mg/kg/injection, schedule: Q04DX002 (ip), vehicle: saline with Tween-80): 100 % of control
- T/C (dose: 25.0 mg/kg/injection, schedule: Q04DX003 (ip), vehicle: saline): 89 % of control
- T/C (dose: 50.0 mg/kg/injection, schedule: Q04DX002 (ip), vehicle: saline with Tween-80): 102 % of control
- T/C (dose: 50.0 mg/kg/injection, schedule: Q04DX003 (ip), vehicle: saline): 100 % of control
- T/C (dose: 75.0 mg/kg/injection, schedule: Q01DX001 (ip), vehicle: carboxymethylcellulose (CMC)): 100 % of control
- T/C [1]: 102 % of control
- T/C (dose: 150.0 mg/kg/injection, schedule: Q01DX001 (ip), vehicle: carboxymethylcellulose (CMC)): 102 % of control
- T/C (dose: 300.0 mg/kg/injection, schedule: Q01DX001 (ip), vehicle: carboxymethylcellulose (CMC)): 100 % of control

Structure (SMILES): CCCCCC1OC1CC1OC1CCCCCCCC(=O)OC (stereo not given)
- T/C [2]: 109 % of control
- T/C [3]: 95 % of control
- T/C [4]: 102 % of control

Structure (SMILES): CSc1ccc(OC(=O)Nc2cccc3ccccc23)cc1
- T/C [5]: 96 % of control
- T/C [6]: 104 % of control
- T/C [7]: 101 % of control

Structure (SMILES): Cc1cc(Nc2ncnc(Cl)c2N)ccc1N
- T/C [8]: 93 % of control
- T/C (dose: 200.0 mg/kg/injection, schedule: Q01DX001 (ip), vehicle: carboxymethylcellulose (CMC)): 98 % of control
- T/C (dose: 400.0 mg/kg/injection, schedule: Q01DX001 (ip), vehicle: carboxymethylcellulose (CMC)): 96 % of control

Structure (SMILES): CC[N+]1(C)CCC(CN2c3ccccc3Sc3ccccc32)C1 (stereo not given)
- T/C (dose: 100.0 mg/kg/injection, schedule: Q04DX003 (ip), vehicle: saline with Tween-80): 100 % of control
- T/C (dose: 200.0 mg/kg/injection, schedule: Q04DX003 (ip), vehicle: saline with Tween-80): 103 % of control
- T/C (dose: 400.0 mg/kg/injection, schedule: Q04DX003 (ip), vehicle: saline with Tween-80): 100 % of control

Structure (SMILES): C[N+](C)(C)Cc1c(C(O)(c2ccccc2)c2ccccc2)ccc2ccccc12
- T/C (dose: 50.0 mg/kg/injection, schedule: Q01DX001 (ip), vehicle: carboxymethylcellulose (CMC)): 94 % of control
- T/C [8]: 96 % of control

Structure (SMILES): CCCCCCCCCCCCCCCCCCNC(=S)Nc1ccc(S(=O)(=O)c2ccc(NC(=S)NCCCCCCCCCCCCCCCCCC)cc2)cc1
- T/C [9]: 98 % of control
- T/C [2]: 87 % of control
- T/C [4]: 106 % of control

Structure (SMILES): Cc1cc(CN)c(C)cc1CN
- T/C (dose: 50.0 mg/kg/injection, schedule: Q01DX009 (ip), vehicle: saline): 96 % of control
- T/C (dose: 100.0 mg/kg/injection, schedule: Q01DX009 (ip), vehicle: saline): 95 % of control
- T/C [1]: 103 % of control
- T/C (dose: 200.0 mg/kg/injection, schedule: Q01DX009 (ip), vehicle: saline): 86 % of control
- T/C (dose: 200.0 mg/kg/injection, schedule: Q04DX003 (ip), vehicle: saline): 97 % of control

Structure (SMILES): CC(C)c1cccc2ccccc12
- T/C (dose: 100.0 mg/kg/injection, schedule: Q04DX003 (ip), vehicle: acetone): 95 % of control
- T/C (dose: 200.0 mg/kg/injection, schedule: Q04DX003 (ip), vehicle: acetone): 88 % of control

Structure (SMILES): O=C(/C=C\c1ccc(C(=O)Nc2ccc(C3=NCCCN3)cc2)cc1)Nc1ccc(C2=NCCCN2)cc1
- T/C (dose: 0.25 mg/kg/injection, schedule: Q01DX Z (ip), vehicle: water): 121 % of control
- T/C (dose: 0.75 mg/kg/injection, schedule: Q01DX Z (ip), vehicle: water): 183 % of control
- T/C (dose: 1.0 mg/kg/injection, schedule: Q01DX Z (ip), vehicle: water): 220 % of control
- T/C (dose: 1.25 mg/kg/injection, schedule: Q01DX Z (ip), vehicle: water): 203 % of control
- T/C (dose: 10.5 mg/kg/injection, schedule: Q01DX Z (ip), vehicle: water): 123 % of control
- T/C (dose: 50.0 mg/kg/injection, schedule: Q01DX Z (oral), vehicle: water): 101 % of control
- T/C (dose: 100.0 mg/kg/injection, schedule: Q01DX Z (oral), vehicle: water): 93 % of control
- T/C (dose: 200.0 mg/kg/injection, schedule: Q01DX Z (oral), vehicle: water): 114 % of control

Structure (SMILES): CC(=O)OCC1OC(n2cnc3c(=S)nc(N)[nH]c32)C(OC(C)=O)C1OC(C)=O (stereo not given)
- T/C (dose: 1.6 mg/kg/injection, schedule: Q01DX Z (ip), vehicle: carboxymethylcellulose (CMC)): 106 % of control
- T/C (dose: 5.0 mg/kg/injection, schedule: Q01DX Z (ip), vehicle: carboxymethylcellulose (CMC)): 162 % of control
- T/C (dose: 6.25 mg/kg/injection, schedule: Q01DX Z (oral), vehicle: other): 94 % of control
- T/C (dose: 7.5 mg/kg/injection, schedule: Q01DX Z (ip), vehicle: carboxymethylcellulose (CMC)): 162 % of control
- T/C (dose: 11.2 mg/kg/injection, schedule: Q01DX Z (ip), vehicle: carboxymethylcellulose (CMC)): 176 % of control
- T/C (dose: 12.5 mg/kg/injection, schedule: Q01DX Z (oral), vehicle: other): 106 % of control
- T/C (dose: 25.0 mg/kg/injection, schedule: Q01DX Z (oral), vehicle: other): 105 % of control
- T/C (dose: 44.0 mg/kg/injection, schedule: Q01DX Z (ip), vehicle: carboxymethylcellulose (CMC)): 86 % of control
- T/C [9]: 100 % of control
- T/C (dose: 50.0 mg/kg/injection, schedule: Q01DX Z (oral), vehicle: other): 122 % of control
- T/C [2]: 123 % of control
- T/C (dose: 150.0 mg/kg/injection, schedule: Q01DX015 (oral), vehicle: other): 120 % of control
- T/C [3]: 103 % of control
- T/C (dose: 200.0 mg/kg/injection, schedule: Q01DX015 (oral), vehicle: other): 97 % of control
- T/C (dose: 250.0 mg/kg/injection, schedule: Q01DX015 (oral), vehicle: other): 94 % of control

Structure (SMILES): CCCC/C(=N/Nc1ccc([N+](=O)[O-])cc1[N+](=O)[O-])c1ccc(Cl)cc1
- T/C [2]: 98 % of control
- T/C [3]: 88 % of control
- T/C [4]: 102 % of control

Structure (SMILES): COc1ccc(C(=O)Nc2ccccc2SC)cc1
- T/C [5]: 99 % of control
- T/C [6]: 96 % of control
- T/C [7]: 102 % of control

Structure (SMILES): O=C(CN1CC1)NCCCCCCCNC(=O)CN1CC1
- T/C (dose: 6.5 mg/kg/injection, schedule: Q01DX001 (ip), vehicle: carboxymethylcellulose (CMC)): 120 % of control
- T/C (dose: 7.0 mg/kg/injection, schedule: Q01DX009 (ip), vehicle: carboxymethylcellulose (CMC)): 94 % of control
- T/C (dose: 9.7 mg/kg/injection, schedule: Q01DX001 (ip), vehicle: carboxymethylcellulose (CMC)): 123 % of control
- T/C (dose: 11.0 mg/kg/injection, schedule: Q01DX009 (ip), vehicle: carboxymethylcellulose (CMC)): 100 % of control
- T/C (dose: 16.0 mg/kg/injection, schedule: Q01DX009 (ip), vehicle: carboxymethylcellulose (CMC)): 94 % of control
- T/C (dose: 25.0 mg/kg/injection, schedule: Q01DX009 (ip), vehicle: carboxymethylcellulose (CMC)): 103 % of control
- T/C (dose: 33.0 mg/kg/injection, schedule: Q01DX001 (ip), vehicle: carboxymethylcellulose (CMC)): 154 % of control

Structure (SMILES): O=[N+]([O-])c1cc(CCl)ccc1CCl
- T/C (dose: 50.0 mg/kg/injection, schedule: Q04DX003 (ip), vehicle: Klucel (hydroxypropylcellulose) (HPC)): 86 % of control
- T/C (dose: 100.0 mg/kg/injection, schedule: Q04DX003 (ip), vehicle: Klucel (hydroxypropylcellulose) (HPC)): 92 % of control
- T/C (dose: 200.0 mg/kg/injection, schedule: Q04DX003 (ip), vehicle: Klucel (hydroxypropylcellulose) (HPC)): 98 % of control

Structure (SMILES): CC(=O)OCC1OC(N2C(=O)/C(=C/c3ccc4c(c3)OCO4)SC2=S)C(OC(C)=O)C(OC(C)=O)C1OC(C)=O (stereo not given)
- T/C (dose: 12.5 mg/kg/injection, schedule: Q01DX005 (ip), vehicle: other): 102 % of control
- T/C (dose: 25.0 mg/kg/injection, schedule: Q01DX005 (ip), vehicle: other): 100 % of control
- T/C (dose: 50.0 mg/kg/injection, schedule: Q01DX005 (ip), vehicle: other): 96 % of control
- T/C (dose: 100.0 mg/kg/injection, schedule: Q01DX005 (ip), vehicle: other): 94 % of control
- T/C (dose: 200.0 mg/kg/injection, schedule: Q01DX005 (ip), vehicle: other): 94 % of control

Structure (SMILES): CCCCNC(=O)C1CCC(CC2CCCCC2)CC1 (stereo not given)
- T/C (dose: 100.0 mg/kg/injection, schedule: Q04DX002 (ip), vehicle: saline with Tween-80): 90 % of control
- T/C (dose: 200.0 mg/kg/injection, schedule: Q04DX002 (ip), vehicle: saline with Tween-80): 105 % of control
- T/C (dose: 400.0 mg/kg/injection, schedule: Q04DX002 (ip), vehicle: saline with Tween-80): 94 % of control

Structure (SMILES): CCOC(=O)c1ccc(N2C(=O)CC(Sc3ccccc3N)C2=O)cc1 (stereo not given)
- T/C (dose: 100.0 mg/kg/injection, schedule: Q01DX005 (ip), vehicle: Klucel (hydroxypropylcellulose) (HPC)): 97 % of control
- T/C [5]: 103 % of control
- T/C (dose: 200.0 mg/kg/injection, schedule: Q01DX005 (ip), vehicle: Klucel (hydroxypropylcellulose) (HPC)): 102 % of control
- T/C [6]: 103 % of control
- T/C (dose: 400.0 mg/kg/injection, schedule: Q01DX005 (ip), vehicle: Klucel (hydroxypropylcellulose) (HPC)): 91 % of control
- T/C [7]: 113 % of control
